Reference: article PMC11869128, “Bayesian Optimization over Multiple Experimental Fidelities Accelerates Automated Discovery of Drug Molecules” (ACS Central Science, 2025)
Where two headings read alike, the source gives them in different places.

How the values were obtained:
HDAC [1] = assay: HDAC fluorometric assay, single-point percent inhibition (medium fidelity); format: biochemical; conditions: for IC50: first iteration, assuming binding follows the Hill equation and is noncooperative, assay run at 20 μM scale, read-out: IC50 corresponding to single point inhibition
Excerpt: In the first iteration, the experimental design algorithm recommended that 3,385 candidates be docked (39% of budget), 261 candidates screened for single-point percent inhibition (61% of budget), and no candidates be manually synthesized for full dose–response characterization (0% of budget). The total budget was 100.0 with the same experiment cost structure of 0.01 for docking, 0.2 for single-point, and 1.0 for dose response curve. Docking was automatically performed with DiffDock, and the resulting conformers scored based on their binding to the catalytic zinc ion and overlap with bound known inhibitors from X-ray crystallography. For the candidates selected for automatic synthesis, the reactions were batched by temperature into well plates to be run in parallel on the automated platform. With a maximum allowance of 6 well plates, the platform attempted to synthesize 79 candidates, with an average of 2.4 reaction steps required for each candidate. Based on observation of the expected mass-to-charge ratio (m/z) during automatic HPLC-MS analysis, 40 of the syntheses were successful. The successful syntheses were automatically purified with semipreparative HPLC, the concentration of the inhibitor was automatically estimated,[47] and the fluorometric inhibition assay was automatically run at 20 μM scale. The structures, synthesis plans, assay scores, and statistics for the attempted molecules are in the SI.

HDAC [2] = conditions: cited from earlier work
HDAC [3] = assay: HDAC fluorometric assay, dose-response curve (high fidelity); conditions: read-out: IC50 (Dose-Response Curve), manually synthesized molecules
Protocol: HDAC inhibition is automatically measured in a plate reader with a fluorometric assay (Abcam ab283378). In the plate-based assay, the liquid handler first dispenses individual purified products in dimethyl sulfoxide into each well, then adds buffer containing HDAC and a peptide substrate containing an acetylated lysine residue. The solution is agitated and incubated for 30 min at 37 °C, then a developer, which reacts with primary amines to form a fluorescent product, is dispensed and incubated for another 30 min. After the second incubation, the plate is transferred to the plate reader to measure fluorescence corresponding to uninhibited HDAC activity. The platform handles all aspects of the assay; dispensing reagents, timing incubation, transferring plates, preparing positive and negative controls, and analyzing fluorescent readouts without human input.

## O=C1CCc2cc(Nn3cnnc3)ccc21 [5-((1,2,4-triazol-4-yl)amino)-indan-1-one]
HDAC [1]; second iteration, automated synthesis and assay
  inhibition in the single-point assay: 11%

## CC(C)(C)N(S(C)(=O)=O)S(=O)(=O)c1cccc(Br)c1 [a]
HDAC [1]
  IC50: 1.14 µM

## Cc1ccc(S(=O)(=O)N(c2ccc([N+](=O)[O-])cc2)C2CCC2)cc1 [b]
HDAC [1]
  IC50: 3.31 µM

## O=[N+]([O-])c1ccc(N(S(=O)(=O)c2cccc3cccnc23)S(=O)(=O)C(F)(F)F)cc1 [c]
HDAC [1]
  IC50: 7.25 µM

## CCN(CC)Cc1ccc2cc(COC(=O)Nc3ccc(C(=O)NO)cc3)ccc2c1 [givinostat]
HDAC [2]; FDA approved hydroxamate
  IC50: 0.837 µM

## CC(/C=C/C(=O)NO)=C\[C@@H](C)C(=O)c1ccc(N(C)C)cc1 [trichostatin A]
HDAC [3]
  IC50: 0.0018 µM

## CCCC(CCC)C(=O)O [valproate]
HDAC [2]; FDA approved nonhydroxamate inhibitor
  IC50: 180 µM
